Assay results published in patent US7786141B2 (Vertex Pharmaceuticals Incorporated, priority 2004, dated 2010).
Read-outs that look alike come from different tables or passages of the source.

Assays:
M1 muscarinic receptor = biological target: T1, M1 muscarinic receptor (Homo sapiens, UniProt P11229); assay: Functional mobilization of intracellular calcium (FLIPR) in M1-CHO cells; assay type: cell-based
T1 construct: expressed in transfected cells; host or cells: CHO (M1-CHO)
T1 sequence (P11229 1-460): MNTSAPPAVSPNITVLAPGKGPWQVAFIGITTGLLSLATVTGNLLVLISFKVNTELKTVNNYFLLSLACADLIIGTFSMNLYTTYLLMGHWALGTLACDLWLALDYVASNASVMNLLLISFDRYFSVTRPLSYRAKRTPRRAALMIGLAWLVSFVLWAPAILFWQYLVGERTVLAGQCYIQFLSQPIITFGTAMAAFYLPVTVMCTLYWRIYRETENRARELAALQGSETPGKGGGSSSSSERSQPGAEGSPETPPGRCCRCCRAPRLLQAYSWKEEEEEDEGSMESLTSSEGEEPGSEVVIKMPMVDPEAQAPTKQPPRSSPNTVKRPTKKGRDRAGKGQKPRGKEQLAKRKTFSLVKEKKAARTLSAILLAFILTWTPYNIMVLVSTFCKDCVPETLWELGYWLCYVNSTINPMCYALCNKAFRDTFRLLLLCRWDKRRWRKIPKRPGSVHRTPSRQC
How it was run: (§1)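 CHO cells stably expressing human M1 or M4 receptor were loaded with Fluo-3 AM (or Calcium 3 dye) in Hepes-buffered saline, pH 7.4, with 1 mM probenecid, 0.5% final DMSO. Agonist mode: compound added directly; antagonist mode: 15 min preincubation before carbachol at EC80. FLIPR fluorescence recorded 60 sec.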

M4 muscarinic receptor = biological target: T2, M4 muscarinic receptor (Homo sapiens, UniProt P08173); assay: Functional mobilization of intracellular calcium (FLIPR) in M4-CHO cells; assay type: cell-based
T2 construct: expressed in transfected cells; host or cells: CHO (M4-CHO)
T2 sequence (P08173 1-479): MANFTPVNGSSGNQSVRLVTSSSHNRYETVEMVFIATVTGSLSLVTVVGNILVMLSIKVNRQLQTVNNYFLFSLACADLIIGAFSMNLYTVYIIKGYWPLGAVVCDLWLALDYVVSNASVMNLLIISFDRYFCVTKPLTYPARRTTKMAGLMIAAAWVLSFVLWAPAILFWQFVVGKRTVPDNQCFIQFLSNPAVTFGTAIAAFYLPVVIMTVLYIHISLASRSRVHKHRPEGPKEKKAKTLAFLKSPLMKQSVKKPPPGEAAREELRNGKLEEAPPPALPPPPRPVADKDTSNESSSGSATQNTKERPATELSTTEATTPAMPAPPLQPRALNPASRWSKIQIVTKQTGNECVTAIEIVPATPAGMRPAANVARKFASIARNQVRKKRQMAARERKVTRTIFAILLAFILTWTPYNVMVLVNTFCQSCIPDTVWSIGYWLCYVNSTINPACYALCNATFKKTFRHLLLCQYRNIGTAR
How it was run: as §1

[1] = M1 receptor, calcium mobilization
[2] = M4 receptor, calcium mobilization
[3] = Table 4, 100% efficacy is the maximum response obtained with the Carbachol control
[4] = Table 4, M1 receptor, calcium mobilization (FLIPR)
[5] = Table 4, M4 receptor, calcium mobilization (FLIPR)
[6] = M1 receptor, calcium mobilization, read-out: M1 Efficacy
[7] = M4 receptor, calcium mobilization, read-out: M4 Efficacy
[8] = Table 4, modulating M1 receptor
[9] = Table 4, modulating M4 receptor
[10] = 100% efficacy is the maximum response obtained with the Carbachol control, Table 5
[11] = CHO cells expressing M1, calcium mobilization, Table 5
[12] = CHO cells expressing M4, calcium mobilization, Table 5

Row | Compound | M1 Activity (M1 muscarinic receptor; [1]) | M4 Activity (M4 muscarinic receptor; [2]) | Emax (M1 muscarinic receptor; [3]) [%] | Emax (M4 muscarinic receptor; [3]) [%] | M1 Activity (M1 muscarinic receptor; [8]) | M4 Activity (M4 muscarinic receptor; [9]) | also measured
1 | CC(=O)N1CC2(CCN(CC3CCN(C(=O)O[C@@H]4CCOC4)CC3)CC2)c2cc(F)ccc21 [compound 82] | xxx (activity was measured to be less than 0.1 μM) | xx (activity was measured to be between 0.1 μM and 1.0 μM) | – | – | – | – | M1 Efficacy (M1 muscarinic receptor; [1]): xx (efficacy was calculated to be between 85% and 65%); M4 Efficacy (M4 muscarinic receptor; [2]): xx (efficacy was calculated to be between 85% and 65%)
2 | C#CCCOC(=O)N1CC[C@@H](CN2CCC3(CC2)CN(C(C)=O)c2ccccc23)C1 [compound 1013] | – | – | < 25 | < 25 | – | – | M1 Activity (M1 muscarinic receptor; [4]): x (activity was measured to be greater than 5.0 μM); M4 Activity (M4 muscarinic receptor; [5]): x (activity was measured to be greater than 5.0 μM)
3 | CCOC(=O)N1CCC(N2CCC3(CC2)CN(C(C)=O)c2ccc(-c4ccc(NC(C)=O)cc4)cc23)CC1 [compound 10] | xx (activity was measured to be between 0.1 μM and 1.0 μM) | xx (activity was measured to be between 0.1 μM and 1.0 μM) | – | – | – | – | Emax (M1 muscarinic receptor; [6]): 65 to 85%; Emax (M4 muscarinic receptor; [7]): 65 to 85%
4 | CCOC(=O)N1CCC(N2CCC3(CC2)CN(C(C)=O)c2c(C)cccc23)CC1 [compound 509] | – | – | 25 to 100 | 25 to 100 | xx (activity was measured to be between 2.0 μM and 5.0 μM) | x (activity was measured to be greater than 5.0 μM) | –
5 | CCOC(=O)N1C2CCC1CC(N1CCC3(CC(=O)c4cc(F)ccc43)C1)C2 (stereo not shown) [compound 980] | – | – | > 100 | 25 to 100 | – | – | M1 Activity (M1 muscarinic receptor; [4]): xxx (activity was measured to be less than 2.0 μM); M4 Activity (M4 muscarinic receptor; [5]): xxx (activity was measured to be less than 2.0 μM)
6 | COc1cc2c(cc1OC)C1(CCN(C3CCCCC3)CC1)C[C@@H]2N(C(C)=O)[C@@H](C)c1ccccc1 [compound 643] | – | – | < 25 | < 25 | x (activity was measured to be greater than 5.0 μM) | x (activity was measured to be greater than 5.0 μM) | –
7 | CCOC(=O)N1CCC(CN2CCC3(CC2)CC(=O)Nc2ccccc23)CC1 [compound 34] | xxx (activity was measured to be less than 0.1 μM) | xx (activity was measured to be between 0.1 μM and 1.0 μM) | – | – | – | – | Emax (M1 muscarinic receptor; [6]): 65 to 85%; Emax (M4 muscarinic receptor; [7]): > 85%
8 | O=C1CC2(CCN([C@@H]3C[C@H]4CC[C@@H]3C4)CC2)c2ccc(Cl)cc21 [compound 901] | – | – | 25 to 100 | 25 to 100 | – | – | M1 Activity (M1 muscarinic receptor; [4]): xx (activity was measured to be between 2.0 μM and 5.0 μM); M4 Activity (M4 muscarinic receptor; [5]): xx (activity was measured to be between 2.0 μM and 5.0 μM)
9 | CC(=O)N[C@H]1CCC2(CCN([C@@H]3CC4CC[C@@H]3C4)CC2)c2ccccc21 [compound 696] | – | – | 25 to 100 | 25 to 100 | xx (activity was measured to be between 2.0 μM and 5.0 μM) | xxx (activity was measured to be less than 2.0 μM) | –
10 | CC(=O)N[C@H]1CC2(CCN([C@@H]3CC4CCC3C4)C2)c2ccc(F)cc21 (stereo partly shown) [compound 821] | – | – | 25 to 100 | < 25 | – | – | M1 Activity (M1 muscarinic receptor; [4]): x (activity was measured to be greater than 5.0 μM); M4 Activity (M4 muscarinic receptor; [5]): x (activity was measured to be greater than 5.0 μM)
11 | CC(=O)N1CC2(CCN(CC3CCN(C(=O)O[C@@H]4CCOC4)CC3)CC2)c2cc(C)ccc21 [compound 403] | – | – | – | – | – | – | EC50 (M1 muscarinic receptor; M1-CHO cells, calcium mobilization (FLIPR)): < 100 nM; Emax (M1 muscarinic receptor; M1-CHO cells, calcium mobilization (FLIPR), read-out: M1 Efficacy): 65 to 85%; EC50 (M4 muscarinic receptor; M4-CHO cells, calcium mobilization (FLIPR)): > 1000 nM; Emax (M4 muscarinic receptor; M4-CHO cells, calcium mobilization (FLIPR), read-out: M4 Efficacy): < 65%
12 | COc1cc2c(cc1OC)C1(CCN([C@H]3CC4CC[C@@H]3C4)CC1)C[C@@H]2NC(C)=O [compound 1002] | – | – | < 25 | < 25 | – | – | M1 Activity (M1 muscarinic receptor; [4]): x (activity was measured to be greater than 5.0 μM); M4 Activity (M4 muscarinic receptor; [5]): x (activity was measured to be greater than 5.0 μM)
13 | COC(=O)N1CC2(CCN(C3CC4CCC(C3)N4C(=O)OC(C)C)CC2)c2cc(F)ccc21 (stereo not shown) [compound 97] | xxx (activity was measured to be less than 0.1 μM) | x (activity was measured to be greater than 1.0 μM) | – | – | – | – | Emax (M1 muscarinic receptor; [6]): 65 to 85%; Emax (M4 muscarinic receptor; [7]): < 65%
14 | CN(C)C(=O)N1CC2(CCN(C3CCN(c4cccc(F)c4)CC3)CC2)c2cc(F)ccc21 [compound 1025] | – | – | – | – | – | – | Emax (M1 muscarinic receptor; [10]): 25 to 100%; EC50 (M1 muscarinic receptor; [11]): 2000 to 10000 nM; Emax (M4 muscarinic receptor; [10]): 25 to 100%; EC50 (M4 muscarinic receptor; [12]): < 2000 nM
15 | Clc1ccc2c(c1)C1(CCN(C3CCCCC3)CC1)CN2 [compound 155] | xxx (activity was measured to be less than 0.1 μM) | x (activity was measured to be greater than 1.0 μM) | – | – | – | – | Emax (M1 muscarinic receptor; [6]): > 85%; Emax (M4 muscarinic receptor; [7]): > 85%
16 | CCOC(=O)N1C2CCC1CC(N1CCC3(CC1)CN(C(=O)c1cc(C)n(C)n1)c1ccc(F)cc13)C2 (stereo not shown) [compound 50] | xxx (activity was measured to be less than 0.1 μM) | xx (activity was measured to be between 0.1 μM and 1.0 μM) | – | – | – | – | Emax (M1 muscarinic receptor; [6]): > 85%; Emax (M4 muscarinic receptor; [7]): > 85%
17 | Clc1ccc2c(c1)C1(CCN(CC3CC4C=CC3C4)CC1)C[C@@H]2NCC1CC2C=CC1C2 (stereo partly shown) [compound 788] | – | – | 25 to 100 | 25 to 100 | xx (activity was measured to be between 2.0 μM and 5.0 μM) | xx (activity was measured to be between 2.0 μM and 5.0 μM) | –
18 | O=C(OC1CCC1)N1C2CCC1CC(N1CCC3(CC1)COc1ccc(F)cc13)C2 (stereo not shown) [compound 123] | xx (activity was measured to be between 0.1 μM and 1.0 μM) | x (activity was measured to be greater than 1.0 μM) | – | – | – | – | Emax (M1 muscarinic receptor; [6]): < 65%; Emax (M4 muscarinic receptor; [7]): < 65%
19 | C#CCOC(=O)N1CC[C@H](CN2CCC3(CC2)CN(C(C)=O)c2ccccc23)C1 [compound 493] | – | – | > 100 | > 100 | xxx (activity was measured to be less than 2.0 μM) | xxx (activity was measured to be less than 2.0 μM) | –
20 | CN(C)C(=O)N1CC2(CCN(C[C@@H]3CCN(c4cnccn4)C3)CC2)c2cc(F)ccc21 [compound 1036] | – | – | – | – | – | – | Emax (M1 muscarinic receptor; [10]): 25 to 100%; EC50 (M1 muscarinic receptor; [11]): < 2000 nM; Emax (M4 muscarinic receptor; [10]): 25 to 100%; EC50 (M4 muscarinic receptor; [12]): < 2000 nM
21 | CC(=O)N1CC2(CCN(C3CCN(c4nn[nH]n4)CC3)CC2)c2ccccc21 [compound 710] | – | – | 25 to 100 | 25 to 100 | x (activity was measured to be greater than 5.0 μM) | x (activity was measured to be greater than 5.0 μM) | –
22 | c1ccc2c(c1)CCCC21CCN(C2C[C@@H]3CC[C@H]2C3)CC1 (stereo partly shown) [compound 642] | – | – | 25 to 100 | > 100 | x (activity was measured to be greater than 5.0 μM) | xxx (activity was measured to be less than 2.0 μM) | –
23 | CC(F)CC(=O)N1CCC(N2CCC3(CC2)CN(C(=O)N(C)C)c2ccc(F)cc23)CC1 (stereo not shown) [compound 921] | – | – | 25 to 100 | < 25 | – | – | M1 Activity (M1 muscarinic receptor; [4]): x (activity was measured to be greater than 5.0 μM); M4 Activity (M4 muscarinic receptor; [5]): x (activity was measured to be greater than 5.0 μM)
24 | CCOC(=O)N1CCC(N2CCC3(CC2)CN(C(C)=O)c2ccc(-c4ccccc4)cc23)CC1 [compound 126] | xxx (activity was measured to be less than 0.1 μM) | x (activity was measured to be greater than 1.0 μM) | – | – | – | – | Emax (M1 muscarinic receptor; [6]): < 65%; Emax (M4 muscarinic receptor; [7]): < 65%
25 | CN(C)C(=O)N[C@H]1CCC2(CCN(C3CCCCCC3)CC2)c2ccccc21 [compound 617] | – | – | 25 to 100 | > 100 | xx (activity was measured to be between 2.0 μM and 5.0 μM) | xxx (activity was measured to be less than 2.0 μM) | –
